Test results: patent publication US20190145961A1, “PPAR AGONIST OR LXR AGONIST FOR USE IN THE TREATMENT OF SYSTEMIC LUPUS ERYTHEMATOSUS BY MODULATION OF LAP ACTIVITY” (Washington University, priority 2016, published 2019)

Key:
Assay type in all cases: cell-based
[1] = test system: Bone marrow-derived macrophages (BMM) from LysM-Cre+ ATG7f/f mice; experiment: IL-10 production by LysM-Cre+ ATG7f/f bone marrow-derived macrophages co-cultured with apoptotic thymocytes (ELISA); details: 20 μM; LysM-Cre+ ATG7f/f (LAP-deficient) BMM, apoptotic thymocytes 10:1, 18 hours co-culture, supernatant ELISA; versus control treatment (FIG. 1B)
Protocol: (§1) Bone marrow-derived macrophages (BMM) were generated as previously described from LysM-Cre− ATG7f/f and LysM-Cre+ ATG7f/f mice. Macrophages were co-cultured with UV-irradiated apoptotic thymocytes (at a ratio of 10 apoptotic cells:1 macrophage) in the presence or absence of PPARβ/δ agonist GW0742 (GW, 20 μM). NT indicates no treatment. After 18 hours of co-culture, supernatants were collected and analyzed for IL-10 production via ELISA (FIG. 1B). […] Thus, PPAR agonists can be effective at restoring the LAP phenotype in LAP-deficient cells.
(§2) Bone marrow-derived macrophages (BMDMs) were generated from bone marrow progenitors obtained from littermates. Freshly prepared bone marrow cells were cultured in DMEM medium supplemented with 10% heat-inactivated FCS, 2 mM L-glutamine, 10 mM HEPES buffer, 50 μg/ml penicillin, and non-essential amino acids in the presence of 20 ng/ml rmM-CSF (Peprotech) for 6 days. Nonadherent cells were removed on day 6, and adherent macrophages were detached from plates and re-plated for experimental use.
Apoptosis was induced in wild-type C57Bl/6 thymocytes by UV irradiation (20 J/m^2). Thymocytes were washed twice with PBS prior to experimental use.

[2] = test system: bone marrow derived-macrophages from Rbcn+/+ and Rbcn−/− mice; experiment: Cytokine production by Rbcn+/+ and Rbcn−/− bone marrow derived-macrophages stimulated with apoptotic thymocytes (Luminex); details: apoptotic thymocytes (1:10), 18 hours, supernatants
Protocol: (§3) 10^6 bone marrow derived-macrophages from Rbcn+/+ and Rbcn−/− mice were stimulated with apoptotic thymocytes (1:10) in vitro for 18 hours, in the presence of GW501516 at different concentrations (+6 μM, ++20 μM, +++60 μM). Collected supernatants were assayed for cytokine production using Luminex technology.
as §3, with “(++20” for “(+6 μM, ++20”
Supernatants were collected from macrophages fed with apoptotic thymocytes for 24 hours. Cytokines released into supernatant were analyzed by Luminex technologies (Millipore). Serum was collected from animals was analyzed by Luminex technologies (Millipore).

[3] = test system: Bone marrow-derived macrophages (BMM) from Rubicon−/− mice; experiment: IL-10 production by Rubicon−/− bone marrow-derived macrophages co-cultured with apoptotic thymocytes (ELISA); details: 60 μM; Rubicon-deficient (LAP-deficient) BMM, apoptotic thymocytes 10:1, 18 hours co-culture, supernatant ELISA; versus control treatment (FIG. 1C)
Protocol: as §1, with “Rubicon−/− mice” for “LysM-Cre− ATG7f/f”, “wild-type littermates.” for “LysM-Cre+ ATG7f/f mice.”, “PPARγ agonists Rosiglitazone (ROS, 20 or 60 μM) or Tesaglitazar (TES, 6 or” for “PPARβ/δ agonist GW0742 (GW,”, “1A).” for “1B).”
Bone marrow-derived macrophages (BMM) were generated as previously described from Rubicon−/− mice and wild-type littermates. […] NT indicates no treatment. After 18 hours of co-culture, supernatants were collected and analyzed for IL-10 production via ELISA FIG. 1C). […] Thus, LXR agonists can be effective at restoring the LAP phenotype in LAP-deficient cells.
as §2, with “Nonadherent cells were removed on day 6, and adherent macrophages were detached from plates and re-plated for experimental use.” left out

With Cc1cc(SCc2sc(-c3ccc(C(F)(F)F)c(F)c3)nc2C)ccc1OCC(=O)O [GW0742] the IL-10 production [1] was “increased IL-10 production”.
For Cc1cc(SCc2sc(-c3ccc(C(F)(F)F)cc3)nc2C)ccc1OCC(=O)O [GW501516], the “production of inflammatory cytokines in response to AT in vitro” value ([2]; 6, 20, 60 μM, Luminex (FIG. 7)) was “reduces production of inflammatory cytokines” and the “IL-10 production in response to apoptotic cells in LAP-deficient macrophages” value ([2]; 20, 60 μM, Luminex (FIG. 8)) was “restores IL-10 production”.
In the case of CC(C)CC[C@@H](O)[C@@H](C)[C@H]1CC[C@H]2[C@@H]3CC=C4C[C@@H](O)CC[C@]4(C)[C@H]3CC[C@]12C [22(R)-hydroxycholesterol], the IL-10 production [3] is reported as “increased IL-10 production”.
